Source: patent US6388108B1, “Aminosterol compounds and uses thereof” (Genaera Corporation, priority 1998, dated 2002)
≈ marks a conversion by molar mass, not a printed value.

Legend:
Assay in all cases: Minimum inhibitory concentration (MIC), microtiter broth incubation
Type in all cases: cell-based
Settings in all cases: 0.5x trypticase soy broth, 37° C., 18-24 hours; lowest concentration with no growth
[1] = system: P. aeruginosa
Description: (§1) Aminosterol compounds (1)-(11) were assayed in vitro against several microbial organisms to evaluate their spectrum of activity. Minimum inhibitory concentrations (MIC) for the bacteria and yeast were determined by incubating 0.9-1.1e5 colony-forming units per milliliter of log-phase microbes in 0.5×trypticase soy broth with increasing concentrations of sample in ninety-six well microtiter plates (commercially available from Corning of Corning, N.Y.) at 37° C. for eighteen to twenty-four hours. The minimum inhibitory concentration (MIC) is the lowest concentration of sample at which no growth was observed. Control incubation in the absence of bacteria served as a baseline value. Initial sample concentrations were two milligrams per milliliter in 250 mM sodium acetate, pH 6.6.

[2] = system: E. coli
Description: as §1

[3] = system: S. aureus
Description: as §1

[4] = system: C. albicans
Description: as §1

Row | MIC P. aeruginosa [1] | MIC E. coli [2] | MIC S. aureus [3] | MIC C. albicans [4] | Structure (SMILES)
1 | 31 µg/mL (≈ 44.2 µM) | 31 µg/mL (≈ 44.2 µM) | 31 µg/mL (≈ 44.2 µM) | – | CC(COS(=O)(=O)O)C(O)CCC(C)C1CCC2C3C(O)CC4CC(NCCCNCCCCNCCCN)CCC4(C)C3CCC12C (stereo not drawn) [Aminosterol (9)]
2 | >250 µg/mL | 63 µg/mL (≈ 112 µM) | 8 µg/mL (≈ 14.2 µM) | – | CC(CO)C(=O)CCC(C)C1CCC2C3C(O)CC4CC(NCCCNCCCCN)CCC4(C)C3CCC12C (stereo not drawn) [Aminosterol (6)]
3 | 32 µg/mL (≈ 58.4 µM) | 8 µg/mL (≈ 14.6 µM) | 1 µg/mL (≈ 1.83 µM) | – | CC(CCCC(C)(C)O)C1CCC2C3C(O)CC4CC(NCCCNCCCCN)CCC4(C)C3CCC12C (stereo not drawn) [Aminosterol (8)]
4 | 250 µg/mL (≈ 443 µM) | 125 µg/mL (≈ 222 µM) | 63 µg/mL (≈ 112 µM) | – | CC(CO)C(O)CCC(C)C1CCC2C3C(O)CC4CC(NCCCNCCCCN)CCC4(C)C3CCC12C (stereo not drawn) [Aminosterol (5)]
5 | 250 µg/mL (≈ 409 µM) | 125 µg/mL (≈ 204 µM) | 16 µg/mL (≈ 26.1 µM) | – | CC(C)C(CCC(C)C1CCC2C3CCC4CC(NCCCNCCCCN)CCC4(C)C3CCC12C)OS(=O)(=O)O (stereo not drawn) [Aminosterol (11)]
6 | >250 µg/mL | 125 µg/mL (≈ 222 µM) | 31 µg/mL (≈ 55.2 µM) | – | CC(CCC(=O)C(C)(C)O)C1CCC2C3C(O)CC4CC(NCCCNCCCCN)CCC4(C)C3CCC12C (stereo not drawn) [Aminosterol (2)]
7 | >250 µg/mL | >250 µg/mL | 250 µg/mL (≈ 388 µM) | – | CC(CO)C(CCC(C)C1CCC2C3C(O)CC4CC(NCCCNCCCCN)CCC4(C)C3CCC12C)OS(=O)(=O)O (stereo not drawn) [Aminosterol (3)]
8 | 256 µg/mL (≈ 385 µM) | 256 µg/mL (≈ 385 µM) | 8 to 16 µg/mL | 128 µg/mL (≈ 192 µM) | CC(CSCC(N)C(=O)O)C(=O)CCC(C)C1CCC2C3C(O)CC4CC(NCCCNCCCCN)CCC4(C)C3CCC12C (stereo not drawn) [Aminosterol (1)]
9 | 32 µg/mL (≈ 49.7 µM) | 128 µg/mL (≈ 199 µM) | 4 to 8 µg/mL | 16 µg/mL (≈ 24.8 µM) | CC(COS(=O)(=O)O)C(O)CCC(C)C1CCC2C3C(O)CC4CC(NCCCNCCCCN)CCC4(C)C3CCC12C (stereo not drawn) [Aminosterol (4)]
10 | 31 µg/mL (≈ 49.5 µM) | 8 µg/mL (≈ 12.8 µM) | 2 µg/mL (≈ 3.2 µM) | – | CC(C)C(CCC(C)C1CCC2C3C(=O)CC4CC(NCCCNCCCCN)CCC4(C)C3CCC12C)OS(=O)(=O)O (stereo not drawn) [Aminosterol (10)]
11 | 16 µg/mL (≈ 24.8 µM) | 16 µg/mL (≈ 24.8 µM) | 8 to 16 µg/mL | 32 µg/mL (≈ 49.7 µM) | CC(C)C(CCC(C)C1CCC2C3C(O)CC4CC(NCCCNCCCCN)CCC4(C)C3CC(O)C12C)OS(=O)(=O)O (stereo not drawn) [Aminosterol (7)]
